# In patent publication US5478726A, “Mycobacterial recombinants and peptides” (priority 1992, dated 1995):
# Columns and labels:
# [1] = system: T cell clone A7JM; conditions: A7JM against macrophages pulsed with the antigen; 7 days
# [2] = system: T cell clone K8AH; conditions: K8AH against macrophages pulsed with the antigen; 7 days
# [3] = system: serum from human patients known to be infected with M. tuberculosis; assay type: binding; conditions: Western blot; preliminary studies
compound,measurement,setting,value
"CC[C@H](C)[C@H](NC(=O)[C@H](Cc1ccc(O)cc1)NC(=O)[C@@H]1CCCN1C(=O)[C@H](CC(=O)O)NC(=O)[C@H](CCC(=O)O)NC(=O)[C@H](CC(C)C)NC(=O)[C@@H](NC(=O)[C@H](C)N)C(C)C)C(=O)N[C@@H](CC(C)C)C(=O)N[C@@H](CC(C)C)C(=O)N[C@H](C(=O)N[C@@H](CO)C(=O)N[C@@H](CO)C(=O)N[C@@H](CCCCN)C(=O)N[C@H](C(=O)O)C(C)C)C(C)C [Peptide 22, A V L E D P Y I L L V S S K V]",Cytotoxicity,[1],82.7 ± 10 percentages
"CC[C@H](C)[C@H](NC(=O)[C@@H](NC(=O)[C@H](CCCCN)NC(=O)[C@H](CCC(=O)O)NC(=O)[C@H](CC(C)C)NC(=O)[C@H](CC(C)C)NC(=O)[C@@H]1CCCN1C(=O)[C@H](CC(C)C)NC(=O)[C@@H](N)CC(C)C)C(C)C)C(=O)NCC(=O)N[C@@H](C)C(=O)NCC(=O)N[C@@H](CCCCN)C(=O)N1CCC[C@H]1C(=O)N[C@@H](CC(C)C)C(=O)O [Peptide 24, L L P L L E K V I G A G K P L]",Cytotoxicity,[2],86.5 ± 0.6 percentages
purified recombinant 65KD protein: purified recombinant 65KD (540 amino acid residue) protein of M. tuberculosis,Immunoreaction with antisera from infected patients,[3],immunoreacted
